The results in this text go back to PubChem BioAssay AID1259407 (Chemical Carcinogenesis Research Information System (CCRIS), 2018).

In the series the test system is CCRIS mutagenicity, Ames/micronucleus/aberration tests. The experiment in a line: CCRIS mutagenicity studies.
Setting [1] is: Test System: AMES SALMONELLA TYPHIMURIUM, Strain/Indicator: TA98, Metabolic Activation: NONE, Method: PREINCUBATION
Where [2] appears, read: Test System: AMES SALMONELLA TYPHIMURIUM, Strain/Indicator: TA100, Metabolic Activation: NONE, Method: PREINCUBATION
The mark [3] stands for this setting: Test System: AMES SALMONELLA TYPHIMURIUM, Strain/Indicator: TA98, Metabolic Activation: NONE, Method: STANDARD PLATE.
Setting [4] is: Test System: AMES SALMONELLA TYPHIMURIUM, Strain/Indicator: TA100, Metabolic Activation: NONE, Method: STANDARD PLATE.

Calls of active or inactive are those of the source. No rule for the calls is given here.

Turning to `COC(=O)c1oc(N(OC(C)=O)C(C)=O)c(-c2ccccc2)c1-c1ccccc1`, the mutagenic call by setting is: under setting [1], “inactive; negative”; (Test System: AMES SALMONELLA TYPHIMURIUM, Strain/Indicator: TA98, Metabolic Activation: RAT, LIVER, S-9, AROCLOR, Method: PREINCUBATION) “inactive; negative”; under setting [2], “inactive; negative”; (Test System: AMES SALMONELLA TYPHIMURIUM, Strain/Indicator: TA100, Metabolic Activation: RAT, LIVER, S-9, AROCLOR, Method: PREINCUBATION) “inactive; negative”.
As to `Cc1ccc2c([N+](=O)[O-])cc[n+]([O-])c2c1`, under “Test System: UDS RODENT PRIMARY CELLS, Strain/Indicator: THY INCORP (NON-S-PHASE), Metabolic Activation: NONE, Method: AUTORADIOGRAPHY”, the mutagenic call is “active; positive”.
Take `Cc1cc2c(c(O)c1O)C(=O)c1c(O)cc(O)cc1C2=O`: the mutagenic call is, setting by setting: under setting [3], “inactive; negative”; under setting [4], “inactive; negative”; (Test System: AMES SALMONELLA TYPHIMURIUM, Strain/Indicator: TA1535, Metabolic Activation: NONE, Method: STANDARD PLATE) “inactive; negative”; (Test System: AMES SALMONELLA TYPHIMURIUM, Strain/Indicator: TA1537, Metabolic Activation: NONE, Method: STANDARD PLATE) “active; positive”; (Test System: AMES SALMONELLA TYPHIMURIUM, Strain/Indicator: TA1537, Metabolic Activation: RAT, LIVER, S-9, PCB, Method: STANDARD PLATE) “active; positive”.
`O=Nc1c(O)ccc2ccccc12`: under setting [1], the mutagenic call is “inactive; negative”.
`O=C(O)/C(Cl)=C(\CCl)C(Cl)Cl`: the mutagenic call is “active; positive” under setting [1]; “active; positive” under setting [2]; “active; positive” (Test System: AMES SALMONELLA TYPHIMURIUM, Strain/Indicator: TA104, Metabolic Activation: NONE, Method: PREINCUBATION).
Consider `O=[N+]([O-])c1ccc(CNc2ncnc3c2ncn3[C@@H]2O[C@H](CO)[C@@H](O)[C@H]2O)cc1`, for which the mutagenic call (Test System: AMES SALMONELLA TYPHIMURIUM, Strain/Indicator: TA98(1,8-DNP), Metabolic Activation: NONE, Method: PREINCUBATION) was “inactive; negative”; the mutagenic call (Test System: AMES SALMONELLA TYPHIMURIUM, Strain/Indicator: TA98(1,8-DNP), Metabolic Activation: RAT, LIVER, S-9, PCB, Method: PREINCUBATION) was “inactive; negative”; the mutagenic call (Test System: AMES SALMONELLA TYPHIMURIUM, Strain/Indicator: TA98(NR), Metabolic Activation: NONE, Method: PREINCUBATION) is “inactive; negative”; the mutagenic call (Test System: AMES SALMONELLA TYPHIMURIUM, Strain/Indicator: TA98(NR), Metabolic Activation: RAT, LIVER, S-9, PCB, Method: PREINCUBATION) is “inactive; negative”; the mutagenic call under setting [1] was “inactive; negative”; the mutagenic call (Test System: AMES SALMONELLA TYPHIMURIUM, Strain/Indicator: TA98, Metabolic Activation: RAT, LIVER, S-9, PCB, Method: PREINCUBATION) is “inactive; negative”. The mutagenic call (Test System: AMES SALMONELLA TYPHIMURIUM, Strain/Indicator: TA100(1,8-DNP), Metabolic Activation: NONE, Method: PREINCUBATION) was “inactive; negative”; the mutagenic call (Test System: AMES SALMONELLA TYPHIMURIUM, Strain/Indicator: TA100(1,8-DNP), Metabolic Activation: RAT, LIVER, S-9, PCB, Method: PREINCUBATION) is “inactive; negative”; the mutagenic call (Test System: AMES SALMONELLA TYPHIMURIUM, Strain/Indicator: TA100(NR), Metabolic Activation: NONE, Method: PREINCUBATION) is “inactive; negative”; the mutagenic call (Test System: AMES SALMONELLA TYPHIMURIUM, Strain/Indicator: TA100(NR), Metabolic Activation: RAT, LIVER, S-9, PCB, Method: PREINCUBATION) was “inactive; negative”; the mutagenic call under setting [2] was “inactive; negative”; the mutagenic call (Test System: AMES SALMONELLA TYPHIMURIUM, Strain/Indicator: TA100, Metabolic Activation: RAT, LIVER, S-9, PCB, Method: PREINCUBATION) was “inactive; negative”. For the same molecule, the mutagenic call by setting is: (Test System: AMES SALMONELLA TYPHIMURIUM, Strain/Indicator: YG1020, Metabolic Activation: NONE, Method: PREINCUBATION) “active; positive”; (Test System: AMES SALMONELLA TYPHIMURIUM, Strain/Indicator: YG1020, Metabolic Activation: RAT, LIVER, S-9, PCB, Method: PREINCUBATION) “inactive; negative”; (Test System: AMES SALMONELLA TYPHIMURIUM, Strain/Indicator: YG1021, Metabolic Activation: NONE, Method: PREINCUBATION) “active; positive”; (Test System: AMES SALMONELLA TYPHIMURIUM, Strain/Indicator: YG1021, Metabolic Activation: RAT, LIVER, S-9, PCB, Method: PREINCUBATION) “active; positive”; (Test System: AMES SALMONELLA TYPHIMURIUM, Strain/Indicator: YG1024, Metabolic Activation: NONE, Method: PREINCUBATION) “active; positive”; (Test System: AMES SALMONELLA TYPHIMURIUM, Strain/Indicator: YG1024, Metabolic Activation: RAT, LIVER, S-9, PCB, Method: PREINCUBATION) “inactive; negative”. Moreover, the mutagenic call by setting is: (Test System: AMES SALMONELLA TYPHIMURIUM, Strain/Indicator: YG1025, Metabolic Activation: NONE, Method: PREINCUBATION) “inactive; negative”; (Test System: AMES SALMONELLA TYPHIMURIUM, Strain/Indicator: YG1025, Metabolic Activation: RAT, LIVER, S-9, PCB, Method: PREINCUBATION) “inactive; negative”; (Test System: AMES SALMONELLA TYPHIMURIUM, Strain/Indicator: YG1026, Metabolic Activation: NONE, Method: PREINCUBATION) “inactive; negative”; (Test System: AMES SALMONELLA TYPHIMURIUM, Strain/Indicator: YG1026, Metabolic Activation: RAT, LIVER, S-9, PCB, Method: PREINCUBATION) “inactive; negative”; (Test System: AMES SALMONELLA TYPHIMURIUM, Strain/Indicator: YG1029, Metabolic Activation: NONE, Method: PREINCUBATION) “inactive; negative”; (Test System: AMES SALMONELLA TYPHIMURIUM, Strain/Indicator: YG1029, Metabolic Activation: RAT, LIVER, S-9, PCB, Method: PREINCUBATION) “inactive; negative”.
For `NC(=O)CCC(=O)Nc1ccc(Cl)c(Cl)c1`, the mutagenic call was “inactive; negative” under setting [3]; “inactive; negative” (Test System: AMES SALMONELLA TYPHIMURIUM, Strain/Indicator: TA98, Metabolic Activation: RAT, LIVER, S-9, AROCLOR 1254, Method: STANDARD PLATE); “inactive; negative” under setting [4]; “inactive; negative” (Test System: AMES SALMONELLA TYPHIMURIUM, Strain/Indicator: TA100, Metabolic Activation: RAT, LIVER, S-9, AROCLOR 1254, Method: STANDARD PLATE).
For `Oc1c(Cl)c(Cl)c(O)c(Cl)c1Cl`, the mutagenic call is, setting by setting: (Test System: CHINESE HAMSTER V79 CELLS, Strain/Indicator: V79 CELLS (HPRT)/6-THIOGUANINE, Metabolic Activation: NONE, Method: PREINCUBATION) “active; positive”; (Test System: CHINESE HAMSTER V-79, Strain/Indicator: V-79/6-THIOGUANINE, Metabolic Activation: NONE, Method: SUSPENSION/PLATE) “active; positive”; (Test System: CHINESE HAMSTER V-79, Strain/Indicator: V-79/OUABAIN, Metabolic Activation: NONE, Method: SUSPENSION/PLATE) “inactive; negative”; (Test System: UDS HUMAN FIBROBLASTS, Strain/Indicator: THY INCORP, Metabolic Activation: NONE, Method: AUTORADIOGRAPHY) “active; positive”.
In the case of `C/C=C/C=C/CCCCCCCO`, the mutagenic call was “inactive; negative” under setting [3]; “inactive; negative” (Test System: AMES SALMONELLA TYPHIMURIUM, Strain/Indicator: TA98, Metabolic Activation: RAT, LIVER, S-9, Method: STANDARD PLATE); “inactive; negative” under setting [4]; “inactive; negative” (Test System: AMES SALMONELLA TYPHIMURIUM, Strain/Indicator: TA100, Metabolic Activation: RAT, LIVER, S-9, Method: STANDARD PLATE); “inactive; negative” (Test System: AMES SALMONELLA TYPHIMURIUM, Strain/Indicator: TA102, Metabolic Activation: NONE, Method: STANDARD PLATE); “inactive; negative” (Test System: AMES SALMONELLA TYPHIMURIUM, Strain/Indicator: TA102, Metabolic Activation: RAT, LIVER, S-9, Method: STANDARD PLATE).
